Measurements from ChEMBL document CHEMBL3507680, “University of Dundee, Gates Library screen for HepG2 cell viability”.

Assay: Human HepG2 cell viability assay in 384 well format
Assay type: toxicity, cell-based
Parameters: dose 125 nL, time 70.5 hour; cytotoxicity at 70.5 h: concentration not given beside the values
Conditions: HepG2 cells, read-out: Inhibition

Compound	cytotoxicity at 70.5 h [%]
Cc1cc(C)n(CC2CCCN2C(=O)c2cccnc2N(C)C)n1 (centres undefined)	-8.62
CCc1nccn1C1CCCN(C(=O)c2cccc3c2OCO3)C1 (centres undefined)	-16
Cc1ccn(-c2ccc(C(=O)N3CCCC(n4ccnc4)C3)cc2)n1 (centres undefined)	-22.3
Cn1nccc1C1CCN(CC(O)c2cccc(F)c2)CC1 (centres undefined)	-8.37
CN(C)c1ncccc1CNC(=O)N1CCCC1CN1CCCCC1 (centres undefined)	-32
O=C(CN1CCN(C(=O)Cc2ccc3c(c2)OCCO3)CC1)NC1CC1	-12.7
c1ccc(Cn2cncn2)c(CNCC2CNc3ccnn3C2)c1 (centres undefined)	-13.5
CC(=O)N1CCCN(C(=O)c2ccn(-c3cccc(Cl)c3)n2)CC1	-26.5
COc1ccc(C(=O)N2CCCCC2Cn2cccn2)c(F)c1 (centres undefined)	-13.3
CCn1ccnc1CN1CCOC(CNc2cccnn2)C1 (centres undefined)	-9.35
Cc1cc(C(=O)NCc2ccnc(N(C)C)c2)c(C)o1	-13.2
O=C(NCCN1CCCCCC1=O)c1n[nH]c(=O)c2ccccc12	-20.8
CN(C)c1ncccc1CNC(=O)N1CCCC1c1ccsc1 (centres undefined)	-16.3
O=C1OCCN1CCc1nc(-c2cc3c4c(c2)CC(=O)N4CCC3)cs1	10.6
c1ccc(Cn2cccn2)c(CNCC2CNc3ccnn3C2)c1 (centres undefined)	-11.7
O=C(c1ccn(-c2cccc(Cl)c2)n1)N1CCN(C2CC2)CC1	-0.559
COc1ccc2cc(C(=O)N3CCCCC3CC(N)=O)[nH]c2c1 (centres undefined)	-15.1
Cc1cccc(-c2nc(CN3CCc4cnc(C)nc4C3)no2)c1	-21.3
Cc1ncc2c(n1)CN(Cc1noc(C3CC3)n1)CC2	15.6
Cc1cc(C)n(C2CN(CC(O)c3ccc(F)cc3)C2)n1 (centres undefined)	-10.7

Compound	cytotoxicity at 70.5 h [%]
COc1ncccc1CNc1cc(N2CCCC2CO)ncn1 (centres undefined)	-12
Cc1cnc(CN2CCOC(CNc3cccnn3)C2)cn1 (centres undefined)	-8.2
CCN1CCC(NC(=O)CN2CCc3c(nc(C4CC4)n3C)C2)CC1	-10.9
c1ccc(Cn2ccnc2CN2CCCC2c2noc(C3CC3)n2)cc1 (centres undefined)	8.17
O=C(NCC1CCSCC1)N(CCCO)C1CCc2ccccc21 (centres undefined)	24.2
CC(C)c1noc(CCCC(=O)NC2CCS(=O)(=O)C2)n1 (centres undefined)	-0.791
CC(NC(=O)NCCCn1cncn1)c1ccccc1Cl (centres undefined)	-2.04
CC(C)c1noc(CCC(=O)NCC2CCOC2)n1 (centres undefined)	-2.41
COc1ccc(C)cc1C(C)NC(=O)NCCCn1cncn1 (centres undefined)	-10.9
NC(=O)CN1CCCN(C(=O)Cc2ccc(F)c(Br)c2)CC1	-8.24
O=C(NCCNC(=O)c1scnc1Cl)c1ccccc1	-6.16
NC(=O)CN1CCCN(C(=O)Cc2ccc3c(c2)OCO3)CC1	-2.14
Cn1ncc(C(=O)N2CCCC(n3cccn3)C2)c1C1CC1 (centres undefined)	-4.62
c1ccc(-c2nc(CN3CCOC(Cn4cccn4)C3)no2)cc1 (centres undefined)	2.47
CC(C)c1nnc2n1CCN(C(=O)c1ccc3cc[nH]c3c1)C2	2.26
CCc1[nH]ncc1C(=O)N1CCCC(n2ccnc2C(C)C)C1 (centres undefined)	1.64
CC(C)c1nnc2n1CCN(C(=O)c1cccc(C(F)(F)F)c1)C2	6.51
c1ncn(CC2CN(Cc3noc(C4CC4)n3)CCO2)n1 (centres undefined)	29.1
CCc1ncc2c(n1)CN(CC(=O)Nc1nnc(C)s1)CC2	-3.21
c1cnn(CC2CN(Cc3noc(C4CC4)n3)CCO2)c1 (centres undefined)	-0.284

Compound	cytotoxicity at 70.5 h [%]
COc1ccc(CN(C)CC(=O)NC2(C)CCS(=O)(=O)C2)cc1F (centres undefined)	-0.516
CCn1ccnc1CNCC1CCCN1c1cccnn1 (centres undefined)	5.62
Cc1ncc2c(n1)CN(Cc1nc3ccccc3o1)CC2	11.4
CCc1cc(C(=O)N2CCC(Nc3ccc(C)nn3)CC2)sc1C	-2.56
Cc1cc(CN2CCCC2c2noc(C)n2)no1 (centres undefined)	4.25
Cn1ccnc1CN1CCCC1c1noc(C2CC2)n1 (centres undefined)	1.39
OC(CN1CCOCC1)CN1CCc2c(ncn2C2CC2)C1 (centres undefined)	30.4
Cc1cnc(CN(C)C2CCN(Cc3ccccc3C#N)C2)o1 (centres undefined)	-5.36
CCN1CCN(c2ccc(CNC(=O)c3ccc(Cl)o3)cn2)CC1	3.11
Cc1noc(C)c1C(=O)NCc1ccc(N2CCOC(C)C2)nc1 (centres undefined)	4.56
Cc1ccccc1CC(=O)N(C)C1CCN(c2ccccn2)CC1	25.2
Cc1nnc(NC(=O)CN2CCCC(Cn3cncn3)C2)s1 (centres undefined)	-1.69
CCNc1cc2c(nn1)CCN(C(=O)c1cc3nc(C)ccc3o1)C2	22.7
CCc1nccn1C1CCCN(C(=O)Cc2ccc(OC)c(F)c2)C1 (centres undefined)	4.08
CCc1nc(C2CCCN2C(=O)C2=COCC2)no1 (centres undefined)	6.98
CN(CC(=O)Nc1ccc(Br)cn1)C(=O)Cc1ccc(O)cc1	-1.46
CCc1noc(C(C)N2CCOCC2)n1 (centres undefined)	3.88
CCc1noc(C(C)N2CCC(N3CCCC3)CC2)n1 (centres undefined)	24.3
CCN1CCC(CNCc2c[nH]nc2C(C)(C)C)C1 (centres undefined)	-2.99
